Article PMC11477289, “Low-Basicity 5-HT6 Receptor Ligands from the Group of Cyclic Arylguanidine Derivatives and Their Antiproliferative Activity Evaluation” (International Journal of Molecular Sciences, 2024)
Values joined by “and” are separate entries in the source; they are usually repeats but may differ in a detail not shown here. Identical values can stand only once.

Tests used:
[1] = Affinity to phospholipids, IAM column (CHI IAM); type: physicochemical; conditions: IAM.PC.DD2 column, pH 7.4
[2] = test system: MCF7 breast carcinoma cell line; assay: Antiproliferative activity (MTS), MCF7; conditions: Homo sapiens, MCF7, 72 h, read-out: IC50 Values MCF7
[3] = test system: AsPC-1 pancreas adenocarcinoma cell line; assay: Antiproliferative activity (MTS), AsPC-1; conditions: Homo sapiens, ASPC1, 72 h, read-out: IC50 Values AsPC-1
[4] = test system: LN-229 glioblastoma cell line; assay: Antiproliferative activity (MTS), LN-229; conditions: Homo sapiens, LN-229, 72 h, read-out: IC50 Values LN-229
[5] = biological target: T1, human 5-HT6 (Homo sapiens, UniProt P50406); assay: [3H]-LSD radioligand binding assay, 5-HT6R; conditions: HEK293 expressing human 5-HT6R, read-out: 5-HT6 Ki
T1 construct: expressed in transfected cells
T1 sequence (P50406 whole entry): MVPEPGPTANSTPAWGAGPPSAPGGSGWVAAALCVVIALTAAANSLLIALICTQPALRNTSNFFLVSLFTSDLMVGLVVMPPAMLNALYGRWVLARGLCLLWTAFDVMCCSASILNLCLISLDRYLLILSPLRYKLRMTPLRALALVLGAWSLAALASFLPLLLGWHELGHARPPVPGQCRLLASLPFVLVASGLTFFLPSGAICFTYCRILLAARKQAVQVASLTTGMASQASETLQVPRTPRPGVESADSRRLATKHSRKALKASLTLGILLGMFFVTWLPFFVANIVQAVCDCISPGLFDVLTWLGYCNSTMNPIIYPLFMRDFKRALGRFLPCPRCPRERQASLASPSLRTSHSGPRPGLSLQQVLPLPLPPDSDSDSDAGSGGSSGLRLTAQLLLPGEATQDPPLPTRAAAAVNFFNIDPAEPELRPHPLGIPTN
Procedure: Next, the ligands’ affinity for the 5-HT6 receptors was evaluated in the [^3H]-LSD radioligand binding assay. Experiments were performed in a stable HEK293 cell line expressing the human 5-HT6R.
The pellets were stored at −80 °C.

[6] = test system: U-251 glioblastoma cells; assay: Antiproliferative activity (MTS), U-251; conditions: Homo sapiens, U-251, 72 h, read-out: IC50 Values U-251
[7] = Chromatographic hydrophobicity index on C18 column (lipophilicity); type: physicochemical
[8] = test system: U87MG glioblastoma cells; assay: Antiproliferative activity (MTS), U87MG; conditions: Homo sapiens, U-87 MG, 72 h, read-out: IC50 Values U87MG
[9] = biological target: human serum albumin (HSA) (Homo sapiens, UniProt P02768); assay: Binding to HSA, Chiralpak HSA column; conditions: Chiralpak HSA column
human serum albumin (HSA), sequence (P02768 25-609): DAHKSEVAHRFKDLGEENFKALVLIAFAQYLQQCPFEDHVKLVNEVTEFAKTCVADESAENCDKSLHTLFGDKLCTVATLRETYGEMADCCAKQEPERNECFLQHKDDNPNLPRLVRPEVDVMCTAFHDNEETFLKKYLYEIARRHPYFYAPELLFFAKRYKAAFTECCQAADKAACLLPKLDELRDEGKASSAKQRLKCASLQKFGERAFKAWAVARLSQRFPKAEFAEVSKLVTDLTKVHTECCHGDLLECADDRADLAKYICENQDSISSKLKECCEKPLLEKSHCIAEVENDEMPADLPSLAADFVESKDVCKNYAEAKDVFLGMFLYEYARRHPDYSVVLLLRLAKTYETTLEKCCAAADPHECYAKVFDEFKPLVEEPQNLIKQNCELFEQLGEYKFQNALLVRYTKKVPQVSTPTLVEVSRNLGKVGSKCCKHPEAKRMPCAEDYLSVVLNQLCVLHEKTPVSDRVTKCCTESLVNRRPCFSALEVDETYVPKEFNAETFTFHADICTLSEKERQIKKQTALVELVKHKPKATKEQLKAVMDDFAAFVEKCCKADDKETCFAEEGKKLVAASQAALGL
Text: We began with an assay for lipophilicity, affinity for phospholipids (for 40 compounds), and drug binding to human serum albumin (HSA) (for 20 compounds), using chromatographic protocols developed by Valko [46] and implemented in our laboratory. Compounds with the highest affinity for 5-HT6R and those showing the most promising ADMET parameters, including the possibility of BBB penetration, DDI, and lipophilicity, determined in silico in SwissADME [45], were selected for testing. These methods allowed the determination of chromatographic hydrophobicity indices (CHIs), binding to HSA (%HSA), and phospholipids (CHIIAM) using a single-gradient elution experiment and comparison to reference substances.
The use of columns modified with plasma proteins, such as HSA, also allows for the estimation of binding to HSA, which is the most dominant plasma protein (PP). Binding to PP affects drug pharmacokinetics, such as distribution, half-life, and clearance.
The mobile phase flow rate was 1.5 mL/min, and the column was maintained at 30 °C. • Chiralpak® HSA (50 mm × 4 mm; 5 µm with safety guard column; Daicel Chiral Technologies, West Chester, PA, USA), mobile phase A: 50 mM ammonium acetate, mobile phase B: HPLC-grade isopropanol (VWR International, Leuven, Belgium). For the first 15 min, the linear gradient from 0 to 20% isopropanol was applied and then held at 20% isopropanol for 12 min. In the last 5 min of the sequence, the mobile phase mixture received a pure ammonium acetate solution. The column temperature was held at 30 °C, whereas the flow rate was 0.9 mL/min.
The reference substances for the calibration of HSA, C18, and IAM columns were purchased, respectively: acetanilide, butyrophenone, diclofenac, and octanonophenone (Alfa Aesar, Haverhill, MA, USA); acetophenone, benzimidazole, colchicine, indole, indometacin, paracetamol, and theophylline (Sigma-Aldrich, Steinheim, Germany); nicardipine and nizatidine (Cayman Chemical, Ann Arbor, MI, USA); carbamazepine, heptanophenone, hexanophenone, propiophenone, and valerophenone (Acros Organic, Pittsburg, PA, USA). Before chromatographic experiments, solutes were dissolved in dimethyl sulfoxide (Avantor Performance Materials Poland S.A., Gliwice, Poland) to obtain a 200 µg/mL concentration. The detection was performed in the UV region at the wavelength from 190 nm to 300 nm. The injected volume was 5 μL, and each compound was analyzed in triplicate.

[10] = test system: 1321N1 astrocytoma cell line; assay: Antiproliferative activity (MTS), 1321N1; conditions: Homo sapiens, 1321-N1, 72 h, read-out: IC50 Values 1321N1

Row | CHI IAM [1] | IC50 [2] [µM] | IC50 [3] [µM] | IC50 [4] [µM] | Ki [5] [nM] | IC50 [6] [µM] | CHI C18 pH 2.6 [7] | CHI C18 pH 7.4 [7] | CHI C18 pH 10.5 [7] | melting point [°C] | IC50 [8] [µM] | %HSA [9] [%] | logKHSA [9] | acid–base properties ([7]; comparison of CHI values at different pH levels) | IC50 [10] [µM] | Compound
1 | 45.2 | > 25 | > 25 | > 25 | 972 ± 242 | > 25 | 99.1 | 97.7 | 100.4 | 192 to 195 |  |  |  |  |  | O=S(=O)(NC1=Nc2ccccc2CN1)c1ccc2c(Cl)cccc2c1 [PR 30, 5-chloro-N-(3,4-dihydroquinazolin-2-yl)naphthalene-2-sulfonamide]
2 | 39.3 | > 25 | > 25 | > 25 | 325 ± 81 | > 25 | 78.8 | 76.7 | 58.4 | > 315 | > 25 | 95.7 | 1.3 | acidic | > 25 | O=S(=O)(Nc1nc2ccccc2[nH]1)c1cccc2ccccc12 [PR 11, N -(1H-1,3-benzodiazol-2-yl)naphthalene-1-sulfonamide]
3 |  | > 25 | > 25 | > 25 | 29400 ± 7360 | > 25 |  |  |  |  | > 25 |  |  |  | > 25 | CC1NC(NS(=O)(=O)c2ccc3ccccc3c2)=Nc2ccc(Br)cc21 (stereo not shown) [PR 36, N -(6-bromo-4-methyl-3,4-dihydroquinazolin-2-yl)naphthalene-2-sulfonamide]
4 | 51.6 | > 25 | > 25 | > 25 | 189 ± 42 | > 25 | 111.2 | 109.2 | 112.5 | 217 to 223 | > 25 | 99.5 | 1.8 |  | > 25 | O=S(=O)(NC1=Nc2cccc(Cl)c2CN1)c1ccc(Cl)c2ccccc12 [PR 53, 4-chloro-N-(5-chloro-3,4-dihydroquinazolin-2-yl)naphthalene-1-sulfonamide]
5 | 46.3 |  |  |  | 484 ± 121 |  | 103.2 | 101.2 | 105.6 | 119 to 123 | > 25 | 98.3 | 1.6 |  | > 25 | CC1NC(NS(=O)(=O)c2cccc3ccccc23)=Nc2ccc(Br)cc21 (stereo not shown) [PR 75, N -(6-bromo-4-methyl-3,4-dihydroquinazolin-2-yl)naphthalene-1-sulfonamide]
6 | 44.0 |  |  |  | 341 ± 76 |  | 96.5 | 95.3 | 98.1 | 275 to 277 | > 25 | 97.8 | 1.5 |  | > 25 | O=S(=O)(NC1=Nc2ccc(Cl)cc2CN1)c1cccc2ccccc12 [PR 47, N -(6-chloro-3,4-dihydroquinazolin-2-yl)naphthalene-1-sulfonamide]
7 | 35.7 |  |  |  | 318 ± 18 |  | 75.1 | 79.2 | 79.6 | 254 to 256 | > 25 | 94.3 | 1.1 |  | > 25 | Nc1nc2ccccc2n1S(=O)(=O)c1cccc2cccnc12 [PR 9, 1-(quinoline-8-sulfonyl)-1H-1,3-benzodiazol-2-amine]
8 |  | > 25 | > 25 | > 25 | 273 ± 68 | > 25 |  |  |  | 178 to 180 | > 25 |  |  |  | > 25 | O=S(=O)(NC1=Nc2ccccc2CCN1)c1cccc2ccccc12 [PR 78, N -(4,5-dihydro-3H-1,3-benzodiazepin-2-yl)naphthalene-1-sulfonamide]
9 | 44.3 |  |  |  | 282 ± 65 |  | 98.2 | 96.5 | 99.5 | 210 to 212 | > 25 | 98.3 | 1.6 |  | > 25 | O=S(=O)(NC1=Nc2ccccc2CN1)c1cccc2cc(Cl)ccc12 [PR 44, 6-chloro-N-(3,4-dihydroquinazolin-2-yl)naphthalene-1-sulfonamide]
10 | 55.5 |  |  |  | 1040 ± 260 |  | 125.7 | 123 and 123.9 | 128.1 | 215 to 219 | 17 ± 0.4 | 99.9 | 2.0 |  | 13.4 ± 0.8 | CC1NC(NS(=O)(=O)c2ccc(Cl)c3ccccc23)=Nc2c(Cl)cc(Cl)cc21 (stereo not shown) [PR 74, 4-chloro-N-(6,8-dichloro-4-methyl-3,4-dihydroquinazolin-2-yl)naphthalene-1-sulfonamide]
11 | 41.4 | > 25 | > 25 | > 25 | 172 ± 41 | > 25 | 92.8 | 90.8 | 96.6 | 245 to 249 | > 25 | 97.3 | 1.4 |  | > 25 | COc1cccc2c1CNC(NS(=O)(=O)c1cccc3ccccc13)=N2 [PR 58, N -(5-methoxy-3,4-dihydroquinazolin-2-yl)naphthalene-1-sulfonamide]
12 | 48.4 |  |  |  | 866 ± 199 |  | 108.2 | 106.2 | 110.1 | 214 to 219 | > 25 | 99.0 | 1.7 |  | > 25 | O=S(=O)(NC1=Nc2c(Cl)cc(Cl)cc2CN1)c1cccc2ccccc12 [PR 51, N -(6,8-dichloro-3,4-dihydroquinazolin-2-yl)naphthalene-1-sulfonamide]
13 | 36.6 | > 25 | > 25 | > 25 | 521 ± 130 | > 25 | 83.7 | 83.2 | 87.3 | 176 to 180 | > 25 | 91.3 | 1.0 |  | > 25 | O=S(=O)(NC1=Nc2ccccc2CN1)c1cccc(Cl)c1 [PR 19, 3-chloro-N-(3,4-dihydroquinazolin-2-yl)benzene-1-sulfonamide]
